Experimental data as given in patent US20210355418A1, “ELECTRODE HAVING NANO STRUCTURE AT TIP” (Ion Chat Research Corporate, priority 2018, published 2021).

How the values were obtained:
Assay type in all cases: cell-based
NG108-15 neurons = test: Action potential recording with 3-electrode MagEle; conditions: 10 uM; cells differentiated by 2% FBS, 10 μM Forskolin
Text: When manufacturing multiple electrodes using MagEle, two types of magnets, a fixed magnet, and an electrode magnet, are used. Wrap the fixed electrodes in a non-conductive material such as parafilm, and attach strip-shaped electrodes made of 2 to 4 pieces of aluminum foil.
This aluminum foil electrode is fixed by magnetic force to the electrode magnet from below, the side surface of the electrode magnet other than facing the cells is wrapped with a non-conductive material such as parafilm to insulate it, and “Clip on ground” is attached above the fixed magnet. A holder for fixing the manipulator is attached (FIG. 20).
Recording was performed from NG108-15 neurons differentiated by 2% FBS, 10 μM Forskolin treatment using the 3-electrode MagEle prepared in (8-1) above (FIG. 22).

NG108-15 cells = test: Intracellular potential recording of cultured nerve cells with C-M magnet electrode; conditions: final external fluid concentration 800 μM; 2 days neural differentiation
Description: NG108-15 cells were used for the purpose of showing that recording is possible from cultured nerve cells. NG108-15 cells (neuroblastoma-glioma hybrid cells) were cultured in a culture medium containing DMEM (Sigma-Aldrich), HAT supplement (Thermofisher) and 10% FBS (Biowest). NG108-15 was seeded on a cover glass that was coated with 0.1% Polyethyleneimine (pH8.4, 150 mM Sodium Tetra-Borate (Wako)), and cultured in the culture medium, in which FBS concentration was reduced to 5% from the above culture medium, and the nerve differentiation was induced by adding 500 μM Ibuprofen (Wako). […]
PEI and PEG-gold coated magnetic nanoparticles were mixed and left at room temperature for three hours. This mixed solution is moved to the cell-adhesive surface of the neodymium magnet and left for additional fifteen minutes to magnetically bond the gold nanoparticles to the neodymium magnet electrode. […]
Spontaneous action potentials were recorded by placing C-M electrode on cells seeded on coverslips. […]
In addition to the spontaneous action potential, the following experiment was conducted to confirm whether the neuronal activity by the neurotransmitter glutamate can be recorded. […] Glutamic acid was administered to the extracellular fluid (final external fluid concentration 800 μM), and the response mediated by glutamate receptors was recorded. […]

[1] = system: differentiated NG108-15 cells; test: Intracellular recording with integrated electrode having nano-protrusion structure at the tip, pressed by manipulator; conditions: 10 mM, integrated electrode fixed with manipulator
Description: More specifically, 0.5 μl PEI (10 mg/ml), 20 ul gold-coated magnetic nanoparticles (NITmagold Cit manufactured by na noimmunotech), and 5 μl of 5 times the concentration HBPS (final concentration of calcium and magnesium is 1 mM) were mixed. It was kept at room temperature for 30 minutes or more. The recording surface of the magnet electrode is fixed upward, the mixed solution is dropped onto the recording surface, adsorbed by magnetic force, and the solution is evaporated at room temperature (Magele).
As shown in the middle drawing of FIG. 3, the entire side surface of the electrode was inserted into a silicon tube (Tyg on) of an insulator to cover it, and the area in contact with the extracellular fluid was further covered with aluminum foil as a ground material. Through the above process, the integrated electrode of the present invention was produced.
The integrated electrode was pressed onto the differentiated NG108-15 cells using a manipulator (FIG. 2), and the integrated electrode was fixed in a state where the nano-protrusion at the tip penetrated the cell membrane and the cells were not crushed. […]
After activating the differentiated NG108-15 cells with 10 mM glutamate, the intracellular potential was measured with an integrated electrode fixed with a manipulator.

[2] = system: differentiated NG108-15 cells; test: Intracellular potential measurement by patch clamp method; conditions: 10 mM
Description: More specifically, a solution containing 2% H.A.T. in DMEM (Sigma-Aldrich) containing 10% FBS (Biowest) was used as the culture medium. According to the literature, in order to differentiate NG108-15 cells into nerve-like cells, FBS in the culture medium is reduced to 2% and the intracellular cAMP concentration is increased by applying the membrane-permeable cAMP (Dibutyryl-cAMP), but in this protocol, it was replaced with 10 uM forskolin. The culture medium was changed at intervals of 2 to 3 days.
This experiment verified that the intracellular potential was induced by glutamate in NG108-15 differentiated cells adjusted in (1-1) using the conventional patch-clamp method.
More specifically, using a glass pipette filled with an intracellular electrolyte solution containing 10 mM glutamate to differentiated NG108-15 cells, the cell membranes were tightly adhered and the glass pipette and cells were electrically integrated.

[3] = system: cardiomyocyte-like cells (iCell Cardiomyocyte2); test: Action potential recording of cardiomyocyte-like cells on conductive glass, charge amplifier (CHAMPL) mode; conditions: final concentration 100 μM in physiological saline, room temperature
Description: Experiments were conducted using myocardial-like cells (iCell Cardiomyocyte2, CDI) as a typical example of cells with low adhesion efficiency to the surface of conductive glass. In order to improve the adhesiveness, the cells were cultured on the surface of conductive glass coated with collagen (Collagen) in a grid pattern in advance. Gold-coated magnetic nanoparticles were introduced into myocardial-like cells and penetrated the cell membrane by a magnetic field. Sodium channels were activated by sodium channel openers such as veratridine and the resulting action potentials were recorded. This experiment was performed at room temperature. […]
Next, using SLO, gold-coated magnetic nanoparticles were introduced into the cell. […] Two days later, the culture medium was replaced with physiological saline before the experiment, and the action potentials of the cells were recorded at room temperature using the charge amplifier mode (ChargeAmpLifier (CHAMPL) mode) (FIG. 10).
However, since the spontaneous action potential could not be observed in this sample (data not shown), Veratridine (Sigma-Aldrich), which acts as a sodium channel opener, was administered to a final concentration of 100 μM in physiological saline. […] Slow depolarization was observed 40 seconds after Veratridine administration, followed by spontaneous action potentials recorded (FIG. 11).

## CC(=O)OCC[N+](C)(C)C [Ach]
NG108-15 neurons
  activity of nerve cell groups: activity of all nerve cell groups was increased

## N[C@@H](CCC(=O)O)C(=O)O [Glutamate, Glutamic acid]
NG108-15 cells
  membrane potential response mediated by glutamate receptors: depolarization (upward change) response of the membrane potential
  time for membrane potential change to return to baseline: about 90 seconds
[1]
  intracellular potential response: Action potentials and slow depolarization were recorded
[2]
  intracellular potential response: induced a slow depolarization and action potentials

## COc1ccc(C(=O)O[C@H]2CC[C@@]3(C)[C@@H]4CC[C@H]5[C@]6(O)C[C@H](O)[C@@]7(O)[C@@H](CN8C[C@@H](C)CC[C@H]8[C@@]7(C)O)[C@]6(O)C[C@@]53O[C@]24O)cc1OC [Veratridine]
[3]
  time to slow depolarization after administration: 40 s
